From PMC10483468, “Biomimetic Dispersive Solid-Phase Microextraction: A Novel Concept for High-Throughput Estimation of Human Oral Absorption of Organic Compounds” (Analytical Chemistry, 2023)
“And” between values parts separate entries of the source, which are not always exact repeats. Equal values may be shown once.

Experiments:
human jejunum = details: value = Peff x 10^4; cited from earlier work
[1] = Dispersive biomimetic solid-phase extraction (d-BMSPE) with PC-modified POP material; assay type: in vitro ADME; details: 30 min; for d-BMSPE extraction efficiency: 3.5 mg/L CEC in 5 mL PBS pH 7.4, ca. 40 mg PC-modified POP, 15 rpm, 37 °C; for RMBE·10^4 (relative mol bioextraction): value = RMBE x 10^4, mol analyte extracted per mol PC attached, PBS pH 7.4, 37 °C
Description: The experimental procedure starts by spiking 5 mL of PBS at pH 7.4 mimicking pH conditions from the small intestine with 3.5 mg L^–1 of the selected CEC and mixing with ca. 40 mg of PC-modified POP material. The material is dispersed gently in the solution at 15 rpm for 30 min at physiological temperature (37 °C) using a lab rotator, followed by separation of the biomimetic material by centrifugation. After separation, the supernatant of the biomimetic extractions is analyzed by HPLC. The bioextractable fraction of every CEC is determined by subtraction from the original spike concentration.
Following the fabrication of the biomimetic polymer, several considerations should be set before carrying out the d-BMSPE. First, the amount of PC on the modified polymer (GMA@HMD@GA@HMD@PCs) to simulate the absorption area of the jejunum needs to be evaluated.
The estimated liquid volume under fasted conditions of the jejunum is ca. 20 mL.[45] However, in this work, solutions of 5 mL were selected in order to reduce the amount of biomimetic material used in every extraction protocol. Therefore, only 1/4 of the total PC amount calculated above (ca. 9 μmol) should be used to maintain the PC to jejunum liquid ratio. A crucial experimental parameter in our work is the amount of PC-laden biopolymer necessary to simulate the absorption area of the jejunum.
With respect to the remainder of experimental parameters, a gentle agitation was performed at 15 rpm to just enable a good dispersion of the polymer in the test solution. The extraction time was set to 30 min according to the average intestinal transit time and the length of the jejunum over the total length of the small intestine.[46] Finally, the extraction temperature was set to 37 °C to simulate physiological conditions.
In addition, a new bioparameter, “RMBE” that stands for "Relative Mol BioExtraction", is herein proposed for the first time. RMBE is defined as the extraction efficiency expressed as mol of analyte extracted per mol of PC attached to the biomimetic material under physiologically simulated conditions (e.g., extraction using PBS buffer at 37 °C, or gastrointestinal fluid surrogates, or actual human fluids, among others).

[2] = Dispersive extraction with the polymer prior to PC attachment (GMA@HMD@GA@HMD); assay type: physicochemical
[3] = Dispersive extraction with the free polymer (GMA monolith); assay type: physicochemical; details: free polymer without PC

Row | SMILES | experimental Peff·10^4 (human jejunum) | d-BMSPE extraction efficiency [1] | RMBE·10^4 (relative mol bioextraction) [1] [mol CEC/mol PC] | extraction efficiency, GMA@HMD@GA@HMD [2] [%] | extraction efficiency, GMA monolith [3] [%]
1 | CC1=C(C(=O)O)N2C(=O)[C@@H](NC(=O)[C@H](N)c3ccccc3)[C@H]2SC1 [CEX, cephalexin] | 1.6[6] cm/ s | – | – | – | –
2 | CN/C(=N/CCSCc1nc[nH]c1C)NC#N [CTM, cimetidine] | 0.8[51] cm/ s | 4.6 ± 2.1% | 9.6 ± 1.7 | – | –
3 | O=C(O)Cc1ccccc1Nc1c(Cl)cccc1Cl [DCF, diclofenac] | 1.6[40] cm/ s | 10.6 ± 1.1% | 22.6 ± 0.8 | ~40 | ~100
4 | NS(=O)(=O)c1cc(C(=O)O)c(NCc2ccco2)cc1Cl [FUR, furosemide] | 0.6[49] cm/ s | 26.3 ± 1.1% | 49.8 ± 0.9 | – | –
5 | Cc1cnc(C(=O)NCCc2ccc(S(=O)(=O)NC(=O)NC3CCCCC3)cc2)cn1 [GLP, glipizide] | 0.9[38] cm/ s | – | – | – | –
6 | CN(C)C(=N)N=C(N)N [MET, metformin] | 0.1[52] cm/ s | 0.9% and 0.9 ± 0.1% | 3.6 ± 0.7 | – | –
7 | CC(=O)Nc1ccc(O)cc1 [PCT, paracetamol] | 4.0[6] cm/ s | 15.3 ± 0.8% | 60.3 ± 1.5 | – | –
